Laboratory results as given in patent publication US8883963B2 (Cadila Healthcare Limited, priority 2007, dated 2014).
Starred links: 1 amine or outer side, 2 acyl side, 3 side chain; linkers in the order of their positions; H or OH if unused. Non-standard residues stand in square brackets, D forms with d. Residues, ends and D or L forms follow the SMILES beside them. ξ: configuration not given here. *: point of attachment. ξBip(2'-Et-4'-OMe) = CCc1cc(OC)ccc1-c1ccc(CC(N)C(=O)O)cc1; ξαMePhe(2-F) = CC(N)(Cc1ccccc1F)C(=O)O; X2 = O=C(C(CCCc1ccccc1Cl)N[*:1])[*:2]; ξhhPhe = NC(CCCc1ccccc1)C(=O)O; Aib = CC(C)(N)C(=O)O; Moc = COC(=O)*

Columns and labels:
[1] = tested on: C57BL/6J mice (mild hyperglycemic); test: In vivo glucose reduction, acute single dose 120-min time-course, i.p. route; set-up: species or system mouse; unit not given here; settings: male C57BL/6J mice
Method: All the animal experiments were carried out according to the internationally valid guidelines following approval by the ‘Zydus Research Center animal ethical committee’.
Two days prior to the study, the animals were randomised and divided into 5 groups (n=6), based upon their fed glucose levels. On the day of experiment, food was withdrawn from all the cages, water was given ad-libitum and were kept for overnight fasting. Vehicle (normal saline)/test/standard compounds were administered intraperitoneally (i.p.) or orally, on a body weight basis.
(§1) Blood samples were centrifuged and the separated serum was immediately subjected for the glucose estimation. Serum for insulin estimation was stored at −70° C. until used for the insulin estimation. The glucose estimation was carried out with DPEC-GOD/POD method (Ranbaxy Fine Chemicals Limited, Diagnostic division, India), using Spectramax-190, in 96-microwell plate reader (Molecular devices Corporation, Sunnyvale, Calif.). […] The AUC and BCAUC obtained from graphs were analyzed for one way ANOVA, followed by Dunnett's post test, using Graph Pad prism software. Furthermore, the insulin estimation was carried out using rat/mouse insulin ELISA kit (Linco research, Missouri USA).

[2] = tested on: C57BL/6J mice (mild hyperglycemic); test: In vivo glucose reduction, acute single dose 120-min time-course, oral route; set-up: species or system mouse; unit not given here; settings: male C57BL/6J mice
Method: Acute single dose 120-min time-course experiments were carried out in male C57BL/6J or db/db mice, age 8-12 weeks, bred in-house. Animals were housed in groups of 6 animals per cage, for a week, in order to habituate them to vivarium conditions (25±4° C., 60-65% relative humidity, 12:12 h light:dark cycle, with lights on at 7.30 am). All the animal experiments were carried out according to the internationally valid guidelines following approval by the ‘Zydus Research Center animal ethical committee’.
Two days prior to the study, the animals were randomised and divided into 5 groups (n=6), based upon their fed glucose levels. On the day of experiment, food was withdrawn from all the cages, water was given ad-libitum and were kept for overnight fasting. Vehicle (normal saline)/test/standard compounds were administered intraperitoneally (i.p.) or orally, on a body weight basis. Soon after the 0 min. blood collection from each animal, the subsequent blood collections were done at 30, 60 and 120 or up to 240 min., via retro-orbital route, under light ether anesthesia (Chen, D., et al., Diabetes Obesity Metabolism, 2005, 7, 307. Kim, J. G. et al., Diabetes, 2003, 52, 751).
as §1, with “USA). Changes in the blood glucose levels, at 0, 30, 60 and 120 min, with selected peptidomimetics are shown in Table 7 (via ip route of administration) and Table 8 (via oral route of administration) respectively.” for “USA).”

Structure (SMILES) | blood glucose levels ([2]; 2 μM/kg oral, 0 min) | blood glucose levels ([2]; 2 μM/kg oral, 30 min) | blood glucose levels ([2]; 2 μM/kg oral, 60 min) | blood glucose levels ([2]; 2 μM/kg oral, 120 min) | blood glucose levels ([1]; 10 nM/kg i.p., 0 min) | blood glucose levels ([1]; 10 nM/kg i.p., 30 min) | blood glucose levels ([1]; 10 nM/kg i.p., 60 min) | blood glucose levels ([1]; 10 nM/kg i.p., 120 min) | also measured
CCc1cc(OC)ccc1-c1ccc(CC(NC(=S)[C@H](CC(=O)O)NC(=O)[C@H](CO)NC(=O)[C@@H](NC(=O)C(C)(Cc2ccccc2F)NC(=O)[C@@H](NC(=O)CNC(=O)C(CCC#N)NC(=O)C(C)(C)NC(=O)[C@@H](N)Cc2c[nH]cn2)[C@H](C)O)[C@H](C)O)C(=S)NC(CCCc2ccccc2F)C(N)=O)cc1 (single isomer, unassigned) [Seq. ID. 180] | 184 ± 2.2 | 118 ± 3.3 | 112 ± 4.4 | 110 ± 2.9 |  |  |  |  | blood glucose levels ([1]; 20 nM/kg i.p., 0 min): 180 ± 3.1; blood glucose levels ([1]; 20 nM/kg i.p., 30 min): 122 ± 3.9; blood glucose levels ([1]; 20 nM/kg i.p., 60 min): 129 ± 2.2; blood glucose levels ([1]; 20 nM/kg i.p., 120 min): 140 ± 2.9
CCc1cc(OC)ccc1-c1ccc(CC(C(=O)N(C)C(CCCc2ccccc2)C(N)=O)N(C)C(=O)[C@H](CC(=O)O)NC(=O)[C@H](CO)NC(=O)[C@@H](NC(=O)C(C)(Cc2ccccc2F)NC(=O)[C@@H](NC(=O)CNC(=O)C(CCC#N)NC(=O)C(C)(C)NC(=O)[C@@H](N)Cc2c[nH]cn2)[C@H](C)O)[C@H](C)O)cc1 (single isomer, unassigned) [Seq. ID. 142] | 185 ± 2.3 | 115 ± 3.8 | 113 ± 4.9 | 109 ± 2.2 |  |  |  |  | blood glucose levels ([1]; 30 nM/kg i.p., 0 min): 183 ± 4.9; blood glucose levels ([1]; 30 nM/kg i.p., 30 min): 117 ± 2.5; blood glucose levels ([1]; 30 nM/kg i.p., 60 min): 116 ± 2.3; blood glucose levels ([1]; 30 nM/kg i.p., 120 min): 119 ± 2.0
CCc1cc(OC)ccc1-c1ccc(CC(NC(=O)[C@H](CC(=O)O)NC(=O)[C@H](CO)NC(=O)[C@@H](NC(=O)C(C)(Cc2ccccc2F)NC(=O)[C@@H](NC(=O)CNC(=O)C(CCC#N)NC(=O)C(C)(C)NC(=O)[C@@H](N)Cc2c[nH]cn2)[C@H](C)O)[C@H](C)O)C(=O)NC(CCCc2ccccc2F)C(N)=O)cc1 (single isomer, unassigned) [Seq. ID. 116] | 185 ± 2.1 | 115 ± 2.8 | 112 ± 4.9 | 111 ± 2.2 |  |  |  |  | blood glucose levels ([1]; 50 nM/kg i.p., 0 min): 184 ± 5.0; blood glucose levels ([1]; 50 nM/kg i.p., 30 min): 122 ± 3.8; blood glucose levels ([1]; 50 nM/kg i.p., 60 min): 128 ± 2.1; blood glucose levels ([1]; 50 nM/kg i.p., 120 min): 149 ± 2.3
CCc1cc(OC)ccc1-c1ccc(CC(NC(=O)[C@H](CC(=O)O)NC(=O)[C@H](CO)NC(=O)[C@@H](NC(=O)[C@H](Cc2ccccc2)NC(=O)[C@@H](NC(=O)CNC(=O)C(CCC#N)NC(=O)C(C)(C)NC(=O)[C@@H](N)Cc2c[nH]cn2)[C@@H](C)O)[C@@H](C)O)C(=O)NC(CCCc2ccc(F)cc2C(F)(F)F)C(N)=O)cc1 (single isomer, unassigned) [Seq. ID. 80] |  |  |  |  | 183 ± 2.2 | 113 ± 2.8 | 113 ± 2.9 | 114 ± 2.0 | blood glucose levels ([2]; 0.5 μM/kg oral, 0 min): 184 ± 2.5; blood glucose levels ([2]; 0.5 μM/kg oral, 30 min): 115 ± 3.6; blood glucose levels ([2]; 0.5 μM/kg oral, 60 min): 113 ± 4.2; blood glucose levels ([2]; 0.5 μM/kg oral, 120 min): 110 ± 2.4
CCc1cc(OC)ccc1-c1ccc(CC(NC(=O)[C@H](CC(=O)O)NC(=O)[C@H](CO)NC(=O)[C@@H](NC(=O)C(C)(Cc2ccccc2F)NC(=O)[C@@H](NC(=O)CNC(=O)C(CCC#N)NC(=O)C(C)(C)NC(=O)[C@H](Cc2c[nH]cn2)NC(C)=O)[C@@H](C)O)[C@@H](C)O)C(=O)NC(CCCc2ccccc2F)C(N)=O)cc1 (single isomer, unassigned) [Seq. ID. 207] | 183 ± 2.4 | 116 ± 3.1 | 112 ± 4.8 | 110 ± 2.5 |  |  |  |  | blood glucose levels ([1]; 50 nM/kg i.p., 0 min): 184 ± 5.0; blood glucose levels ([1]; 50 nM/kg i.p., 30 min): 122 ± 3.8; blood glucose levels ([1]; 50 nM/kg i.p., 60 min): 128 ± 2.1; blood glucose levels ([1]; 50 nM/kg i.p., 120 min): 149 ± 2.3
CCc1cc(OC)ccc1-c1ccc(CC(NC(=O)[C@H](CC(=O)O)NC(=O)[C@H](CO)NC(=O)[C@@H](NC(=O)[C@H](Cc2ccccc2)NC(=O)[C@@H](NC(=O)CNC(=O)C(CCC#N)NC(=O)C(C)(C)NC(=O)[C@@H](N)Cc2c[nH]cn2)[C@@H](C)O)[C@@H](C)O)C(=O)NC(CCCc2ccc(Cl)cc2C)C(N)=O)cc1 (single isomer, unassigned) [Seq. ID. 32] | 181 ± 2.5 | 117 ± 3.3 | 112 ± 4.0 | 108 ± 2.9 |  |  |  |  | blood glucose levels ([1]; 20 nM/kg i.p., 0 min): 182 ± 3.3; blood glucose levels ([1]; 20 nM/kg i.p., 30 min): 120 ± 3.6; blood glucose levels ([1]; 20 nM/kg i.p., 60 min): 127 ± 3.4; blood glucose levels ([1]; 20 nM/kg i.p., 120 min): 145 ± 2.1
CCc1cc(OC)ccc1-c1ccc(CC(NC(=O)[C@H](CC(=O)O)NC(=O)[C@H](CO)NC(=O)[C@@H](NC(=O)C(C)(Cc2ccccc2F)NC(=O)[C@@H](NC(=O)CNC(=O)[C@H](CCC(N)=O)NC(=O)C(C)(C)NC(=O)[C@H](Cc2c[nH]cn2)NC(=O)OC)[C@@H](C)O)[C@@H](C)O)C(=O)NC(CCCc2ccccc2)C(N)=O)cc1 (stereo partly shown) [Seq. ID. 94] (Moc-H[Aib]QGT[ξαMePhe(2-F)]TSD[ξBip(2'-Et-4'-OMe)][ξhhPhe]-NH2) |  |  |  |  | 182 ± 4.1 | 112 ± 3.1 | 113 ± 2.6 | 111 ± 1.8 | 
CCc1cc(OC)ccc1-c1ccc(CC(CNC(CCCc2ccccc2F)C(N)=O)NC[C@H](CC(=O)O)NC(=O)[C@H](CO)NC(=O)[C@@H](NC(=O)C(C)(Cc2ccccc2F)NC(=O)[C@@H](NC(=O)CNC(=O)[C@H](CCC(N)=O)NC(=O)C(C)(C)NC(=O)[C@H](Cc2c[nH]cn2)NC(C)=O)[C@@H](C)O)[C@@H](C)O)cc1 (single isomer, unassigned) [Seq. ID. 195] |  |  |  |  | 182 ± 2.3 | 110 ± 2.3 | 112 ± 3.0 | 112 ± 1.9 | 
CCc1cc(OC)ccc1-c1ccc(CC(C(=O)N(C)C(CCCc2ccccc2F)C(N)=O)N(C)C(=O)[C@H](CC(=O)O)N(C)C(=O)[C@H](CO)NC(=O)[C@@H](NC(=O)C(C)(Cc2ccccc2F)NC(=O)[C@@H](NC(=O)CNC(=O)C(CCC#N)NC(=O)C(C)(C)NC(=O)[C@@H](N)Cc2c[nH]cn2)[C@H](C)O)[C@H](C)O)cc1 (single isomer, unassigned) [Seq. ID. 156] |  |  |  |  |  |  |  |  | blood glucose levels ([1]; 30 nM/kg i.p., 0 min): 180 ± 3.2; blood glucose levels ([1]; 30 nM/kg i.p., 30 min): 119 ± 3.2; blood glucose levels ([1]; 30 nM/kg i.p., 60 min): 117 ± 3.1; blood glucose levels ([1]; 30 nM/kg i.p., 120 min): 118 ± 1.8
CCc1cc(OC)ccc1-c1ccc(CC(NC(=O)[C@H](CC(=O)O)NC(=O)[C@H](CO)NC(=O)[C@@H](NC(=O)C(C)(Cc2ccccc2F)NC(=O)[C@@H](NC(=O)CNC(=O)[C@H](CCC(N)=O)NC(=O)C(C)(C)NC(=O)[C@@H](N)Cc2c[nH]cn2)[C@@H](C)O)[C@@H](C)O)C(=O)NC(CCCc2ccccc2Cl)C(N)=O)cc1 (stereo partly shown) [Seq. ID. 90] (H-H[Aib]QGT[ξαMePhe(2-F)]TSD[ξBip(2'-Et-4'-OMe)][X2]-NH2) |  |  |  |  | 181 ± 2.5 | 111 ± 3.4 | 113 ± 3.1 | 110 ± 1.8 | 
